Here are results for 27 molecules from US20080207614A1, “QUINAZOLINE DERIVATIVES FOR THE TREATMENT AND PREVENTION OF DIABETES AND OBESITY” (SK CHEMICALS CO., LTD., priority 2004, published 2008).

For one experiment, the system named is C2C12 muscle cells. The experiment can be described thus: Analysis of glucose absorption (2-deoxyglucose) in differentiated C2C12 muscle cells. Conditions: test materials 10 μM, times relative to control group. The format is cell-based. The method in brief:
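Uptake of 0.2 μCi 2-deoxyglucose over 20 min, counted radiometrically in lysed cells. Before tracer, compounds (10 μM) were applied for 30 min to C2C12 cells differentiated 6 days in 1% serum and equilibrated 3 h in 5 mM glucose KRB.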

The test system of a further experiment is AMPK. The experiment can be described thus: Measurement of AMPK activity by Western blot in C2C12 cells. The format is cell-based. Set-up: key to AMPK activity (degree of phosphorylation of serine-79 and threonine-172): fold increase in threonine-172 phosphorylation; AMPK activity (degree of phosphorylation of serine-79): unit not given here. Conditions: 10 μM for 50 minutes; for AMPK activity (degree of phosphorylation of serine-79 and threonine-172): no superscript: Western blot of serine-79 and threonine-172 phosphorylation; for AMPK activity (class: degree of phosphorylation of threonine-172): strong/mild/weak; for AMPK activity (degree of phosphorylation of serine-79): footnote a: Western blot of serine-79 phosphorylation. Summed up: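 Western blot readout of AMPK Thr-172 and ACC Ser-79 phosphorylation, normalised against ERK, served as the activity measure. Cells were C2C12 after differentiation, treated 50 minutes with 10 μM test material. Grading by Thr-172 increase: ≥3-fold strong, 1-3-fold mild, <1-fold weak.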
On the technique in general: A western blot detects proteins with antibodies after separation by electrophoresis.

Molecules are shown by their SMILES.

Turning to `c1ccc(-c2nc(NCc3ccccn3)c3ccccc3n2)cc1` [Compound 142, (2-Phenylquinazolino-4-yl)-pyridino-2-ylmethylamine], in the experiment with C2C12 muscle cells, the Glucose absorption is given as 1.4. In the experiment on AMPK, the “AMPK activity (degree of phosphorylation of serine-79 and threonine-172)” value turned out to be 1.4; the “AMPK activity (class: degree of phosphorylation of threonine-172)” value is given as “mild (“mild” means that the degree of phosphorylation of threonine-172 increased by 1 to 3 times)”.
Molecule `COc1cccc(CNc2nc(Cc3ccccc3)nc3ccccc23)c1OC` [Compound 329, (2-Benzylquinazolino-4-yl)-(2,3-dimethoxybenzyl)-amine] registered a Glucose absorption with C2C12 muscle cells of 1.8. Further, the “AMPK activity (degree of phosphorylation of serine-79 and threonine-172)” value in the experiment on AMPK is 4.2.
In the experiment with C2C12 muscle cells, `CC(C)c1nc(NCCCCc2ccccc2)c2ccccc2n1` [Compound 180, (2-Isopropylquinazolino-4-yl)-(4-phenylbutyl)-amine] showed a Glucose absorption of 4.1. In the experiment on AMPK, the “AMPK activity (degree of phosphorylation of serine-79 and threonine-172)” value came to 3.9; the “AMPK activity (class: degree of phosphorylation of threonine-172)” value is on record as “strong (“strong” means that the degree of phosphorylation of threonine-172 increased by 3 times or more)”.
Regarding `CCSc1nc(NC(C)C)c2ccccc2n1` [Compound 8, (2-Ethylsulfanylquinazolino-4-yl)-isopropylamine], the Glucose absorption in the experiment on C2C12 muscle cells worked out at 1.2. Further, the “AMPK activity (degree of phosphorylation of serine-79)” value with AMPK was 3.0^a.
Regarding `CC(C)(C)c1nc(NCc2ccccc2)c2ccccc2n1` [Compound 187, Benzyl-(2-tert-butylquinazolino-4-yl)-amine], the Glucose absorption with C2C12 muscle cells is given as 2.4. Moreover, in the experiment with AMPK, the “AMPK activity (degree of phosphorylation of serine-79 and threonine-172)” value is 0.7; the “AMPK activity (class: degree of phosphorylation of threonine-172)” value was “mild (“mild” means that the degree of phosphorylation of threonine-172 increased by 1 to 3 times)”.
In the experiment with C2C12 muscle cells, `COc1cc(CNc2ncnc3ccccc23)cc(OC)c1OC` [Compound 411, Quinazolino-4-yl-(3,4,5-trimethoxybenzyl)-amine] had a Glucose absorption of 1.2. Also, in the experiment on AMPK, the “AMPK activity (degree of phosphorylation of serine-79 and threonine-172)” value stood at 1.8.
`Cc1nc(NCc2cccc(F)c2)c2ccccc2n1` [Compound 171, (3-Fluorobenzyl)-(2-methylquinazolino-4-yl)-amine] gave a Glucose absorption in the experiment on C2C12 muscle cells of 2.2. Moreover, in the experiment on AMPK, the “AMPK activity (degree of phosphorylation of serine-79 and threonine-172)” value is listed as 6.6; the “AMPK activity (class: degree of phosphorylation of threonine-172)” value is “strong (“strong” means that the degree of phosphorylation of threonine-172 increased by 3 times or more)”.
`Cc1nc(NCc2cccc(C(F)(F)F)c2)c2ccccc2n1` [Compound 166, (2-Methylquinazolino-4-yl)-(3-trifluoromethylbenzyl)-amine] came in with a Glucose absorption in the experiment on C2C12 muscle cells of 2.8. Besides, in the experiment with AMPK, the “AMPK activity (degree of phosphorylation of serine-79 and threonine-172)” value was 3.8; the “AMPK activity (class: degree of phosphorylation of threonine-172)” value is on record as “strong (“strong” means that the degree of phosphorylation of threonine-172 increased by 3 times or more)”.
As to `ClC(Cl)(Cl)c1nc(NC2CC2)c2ccccc2n1` [Compound 3, Cyclopropyl-(2-trichloromethylquinazolino-4-yl)-amine], in the experiment with C2C12 muscle cells, the Glucose absorption is listed as 1.2. Moreover, the “AMPK activity (degree of phosphorylation of serine-79)” value in the experiment with AMPK was 3.3^a.
`COc1cc(CNc2nc(C(C)C)nc3ccccc23)cc(OC)c1OC` [Compound 325, (2-Isopropylquinazolino-4-yl)-(3,4,5-trimethoxybenzyl)-amine] returned a Glucose absorption in the experiment on C2C12 muscle cells of 1.2. The “AMPK activity (degree of phosphorylation of serine-79 and threonine-172)” value in the experiment with AMPK is on record as 2.2.
In the case of `COc1cccc(CNc2nc(C(C)C)nc3ccccc23)c1OC` [Compound 322, (2,3-Dimethoxybenzyl)-(2-isopropylquinazolino-4-yl)-amine], in the experiment on C2C12 muscle cells, the Glucose absorption is on record as 1.4. Besides, the “AMPK activity (degree of phosphorylation of serine-79 and threonine-172)” value in the experiment on AMPK is 1.9.
For the molecule `COc1ccc(CNc2nc(C3CCCCC3)nc3ccccc23)cc1` [Compound 201, (2-Cyclohexylquinazolino-4-yl)-(4-methoxybenzyl)-amine], the Glucose absorption in the experiment on C2C12 muscle cells worked out at 1.7. In the experiment with AMPK, the “AMPK activity (degree of phosphorylation of serine-79 and threonine-172)” value is listed as 2.8; the “AMPK activity (class: degree of phosphorylation of threonine-172)” value is given as “strong (“strong” means that the degree of phosphorylation of threonine-172 increased by 3 times or more)”.
The matching figures for `COc1cccc(CNc2nc(C(C)C)nc3ccccc23)c1` [Compound 176, (2-Isopropylquinazolino-4-yl)-(3-methoxybenzyl)-amine]: 2.4, 4.4 and “strong (“strong” means that the degree of phosphorylation of threonine-172 increased by 3 times or more)”.
The matching figures for `COc1ccc(CNc2nc(C)nc3ccccc23)cc1` [Compound 165, (4-Methoxybenzyl)-(2-methylquinazolino-4-yl)-amine]: 2.5, 5.2 and “strong (“strong” means that the degree of phosphorylation of threonine-172 increased by 3 times or more)”.
For `Brc1ccccc1CNc1nc(-c2ccccc2)nc2ccccc12` [Compound 155, (2-Bromobenzyl)-(2-phenylquinazolino-4-yl)-amine], in the experiment on C2C12 muscle cells, the Glucose absorption worked out at 2.7. In the experiment with AMPK, the “AMPK activity (degree of phosphorylation of serine-79 and threonine-172)” value was 1.3; the “AMPK activity (class: degree of phosphorylation of threonine-172)” value is given as “mild (“mild” means that the degree of phosphorylation of threonine-172 increased by 1 to 3 times)”.
Regarding `COc1ccc(CNc2nc(N3CCCC3)nc3ccccc23)cc1` [Compound 283, (4-Methoxybenzyl)-(2-pyrrolidino-1-ylquinazolino-4-yl)-amine], the Glucose absorption in the experiment with C2C12 muscle cells stood at 1.0. Besides, the “AMPK activity (degree of phosphorylation of serine-79 and threonine-172)” value with AMPK is 1.1.
For the molecule `CC(C)c1nc(NCc2cccc3ccccc23)c2ccccc2n1` [Compound 181, (2-Isopropylquinazolino-4-yl)-naphthaleno-1-ylmethylamine], the Glucose absorption in the experiment on C2C12 muscle cells is 3.1. For the same molecule, in the experiment with AMPK, the “AMPK activity (degree of phosphorylation of serine-79 and threonine-172)” value stood at 3.1; the “AMPK activity (class: degree of phosphorylation of threonine-172)” value is “strong (“strong” means that the degree of phosphorylation of threonine-172 increased by 3 times or more)”.
In the experiment on C2C12 muscle cells, `c1ccc2c(NCc3ccc4c(c3)OCO4)nc(N3CCCC3)nc2c1` [Compound 307, Benzo[1,3]dioxol-5-ylmethyl-(2-pyrrolidino-1-ylquinazolino-4-yl)-amine] had a Glucose absorption of 0.8. Moreover, the “AMPK activity (degree of phosphorylation of serine-79 and threonine-172)” value in the experiment on AMPK is recorded as 2.0.
In the experiment with C2C12 muscle cells, `Cc1nc(NCc2cccc3ccccc23)c2ccccc2n1` [Compound 169, (2-Methylquinazolino-4-yl)-naphthaleno-1-ylmethylamine] showed a Glucose absorption of 2.5. Further, in the experiment with AMPK, the “AMPK activity (degree of phosphorylation of serine-79 and threonine-172)” value was 6.6; the “AMPK activity (class: degree of phosphorylation of threonine-172)” value was “strong (“strong” means that the degree of phosphorylation of threonine-172 increased by 3 times or more)”.
`O=[N+]([O-])c1ccc2ncnc(Nc3ccccc3)c2c1` [Compound 13, (6-Nitro-quinazolino-4-yl)-phenylamine] came in with a Glucose absorption with C2C12 muscle cells of 0.7. Also, the “AMPK activity (degree of phosphorylation of serine-79)” value in the experiment on AMPK is recorded as 4.2^a.
As for `CCCc1nc(NCc2cccc(OC)c2)c2ccccc2n1` [Compound 394, (3-Methoxybenzyl)-(2-propylquinazolino-4-yl)-amine], in the experiment on C2C12 muscle cells, the Glucose absorption came to 1.3. Besides, in the experiment on AMPK, the “AMPK activity (degree of phosphorylation of serine-79 and threonine-172)” value is listed as 4.5.
The molecule `Clc1ccccc1CCNc1nc(-c2ccccc2)nc2ccccc12` [Compound 151, [2-(2-Chlorophenyl)-ethyl]-(2-phenylquinazolino-4-yl)-amine] returned a Glucose absorption in the experiment on C2C12 muscle cells of 1.3. Moreover, in the experiment on AMPK, the “AMPK activity (degree of phosphorylation of serine-79 and threonine-172)” value was 1.8; the “AMPK activity (class: degree of phosphorylation of threonine-172)” value is listed as “strong (“strong” means that the degree of phosphorylation of threonine-172 increased by 3 times or more)”.
In the case of `COc1ccc(CNc2nc(C3CC3)nc3ccccc23)c(OC)c1` [Compound 390, (2-Cyclopropylquinazolino-4-yl)-(2,4-dimethoxybenzyl)-amine], the Glucose absorption in the experiment on C2C12 muscle cells was determined as 1.1. Besides, the “AMPK activity (degree of phosphorylation of serine-79 and threonine-172)” value with AMPK is 3.8.
Molecule `COc1ccc(CNc2nc(C(C)C)nc3ccccc23)cc1` [Compound 177, (2-Isopropylquinazolino-4-yl)-(4-methoxybenzyl)-amine] had a Glucose absorption in the experiment with C2C12 muscle cells of 2.8. Moreover, in the experiment with AMPK, the “AMPK activity (degree of phosphorylation of serine-79 and threonine-172)” value is 5.5; the “AMPK activity (class: degree of phosphorylation of threonine-172)” value is given as “strong (“strong” means that the degree of phosphorylation of threonine-172 increased by 3 times or more)”.
For the molecule `COc1cc(CNc2nc(C(C)C)nc3ccccc23)cc(OC)c1` [Compound 323, (3,5-Dimethoxybenzyl)-(2-isopropylquinazolino-4-yl)-amine], the Glucose absorption in the experiment with C2C12 muscle cells came out at 1.1. Moreover, the “AMPK activity (degree of phosphorylation of serine-79 and threonine-172)” value with AMPK amounted to 1.2.
In the case of `CCSc1nc(NCc2cccc3ccccc23)c2ccccc2n1` [Compound 35, (2-Ethylsulfanylquinazolino-4-yl)-naphthaleno-1-ylmethyl amine], the Glucose absorption in the experiment on C2C12 muscle cells was 1.9. Also, the “AMPK activity (class: degree of phosphorylation of threonine-172)” value in the experiment with AMPK was “strong (“strong” means that the degree of phosphorylation of threonine-172 increased by 3 times or more)”.
In turn, `COc1cc(CNc2nc(N3CCN(C)CC3)nc3ccccc23)cc(OC)c1` [Compound 306, (3,5-Dimethoxybenzyl)-[2-(4-methylpiperazino-1-yl)-quinazolino-4-yl]-amine] came in with a Glucose absorption in the experiment on C2C12 muscle cells of 0.8. The “AMPK activity (degree of phosphorylation of serine-79 and threonine-172)” value in the experiment on AMPK came out at 1.7.
